{"source": "patent US9770026B2", "about": "“Substituted pyrimidine compound and uses thereof” (Shenyang Sinochem Agrochemicals R&D Co., Ltd., priority 2012, dated 2017)", "key": {"armyworm": {"system": "armyworm", "assay": "bioactivity test against armyworm, airbrush spray", "type": "in vivo", "settings": "72 h, read-out: Insecticidal activity against armyworm (%); for pest or weed control at 600 µg/mL: 600 mg/L"}, "rice blast": {"system": "rice blast", "assay": "microbe, parasite or virus in culture", "type": "cell-based", "settings": "Pyricularia oryzae, read-out: inhibition rate against rice blast, 25 ppm, in vitro"}, "cucumber downy mildew": {"system": "cucumber downy mildew", "assay": "protectant activity in vivo against cucumber downy mildew", "settings": "Cucumis sativus, 168 h, protectant activity"}, "wheat powdery mildew": {"system": "wheat powdery mildew", "assay": "protectant activity in vivo against wheat powdery mildew", "settings": "Triticum aestivum, 168 h, protectant activity"}, "[1]": {"system": "Green peach aphids (Myzus Persicae Sulzer)", "assay": "bioactivity test against green peach aphid, airbrush foliar spray", "type": "in vivo", "settings": "Myzus persicae, foliar, 48 h, contrastive test, read-out: Insecticidal activity against peach aphid (%); for pest or weed control at 2.5 µg/mL: 2.5 mg/L; for pest or weed control at 5 µg/mL: 5 mg/L; for pest or weed control at 10 µg/mL: 10 mg/L; for pest or weed control at 100 µg/mL: 100 mg/L; for pest or weed control at 600 µg/mL: 600 mg/L", "summary_of_the_method": "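Death rate was scored at 48 hrs, held at 25±1 C and 60±5% RH, following airbrush foliar spray (0.5 mL, 10 psi) onto cabbage leaf discs bearing about 15-30 aphids. Test solutions: compound dissolved in 1:1 acetone:methanol, brought to concentration with 0.1% tween 80 water.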"}, "Diamond back moth": {"system": "Diamond back moth", "assay": "insecticidal activity against diamond back moth, airbrush spray", "type": "in vivo", "settings": "72 h; for pest or weed control at 10 µg/mL: 10 mg/L; for pest or weed control at 100 µg/mL: 100 mg/L; for pest or weed control at 600 µg/mL: 600 mg/L", "summary_of_the_method": "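Airbrush leaf-disc spray test: both faces of 2 cm cabbage discs received 0.5 ml of test solution at 0.7 kg/cm^2. Solutions were made in acetone:methanol (1:1) and brought to concentration with 0.1% Tween 80 in water. Ten second-instar larvae per disc, triplicates, were held at 25° C and 60˜70% R.H., with mortality recorded at 72 hrs.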"}, "corn rust": {"system": "corn rust", "assay": "protectant activity in vivo against corn rust", "settings": "Zea mays, 168 h, protectant activity"}}, "data": [{"compound": "FC(F)(F)c1ccc(Oc2ccc(CCNc3ncnc4ccccc34)cc2)cc1", "note": "[CK11, reference compound]", "values": [{"measurement": "pest or weed control at 600 µg/mL", "setting": "armyworm", "result": 29, "unit": "%"}, {"measurement": "inhibition at 25 ppm", "setting": "rice blast", "result": 0, "unit": "%"}, {"measurement": "pest or weed control at 25 µg/mL", "setting": "cucumber downy mildew; read-out: control effect against cucumber downy mildew (%), 25 mg/L", "result": 0, "unit": "%"}, {"measurement": "pest or weed control at 50 µg/mL", "setting": "cucumber downy mildew; read-out: control effect against cucumber downy mildew (%), 50 mg/L", "result": 0, "unit": "%"}, {"measurement": "pest or weed control at 100 µg/mL", "setting": "cucumber downy mildew; read-out: control effect against cucumber downy mildew (%), 100 mg/L", "result": 30, "unit": "%"}, {"measurement": "pest or weed control at 400 µg/mL", "setting": "cucumber downy mildew; read-out: control effect against cucumber downy mildew (%), 400 mg/L", "result": 85, "unit": "%"}, {"measurement": "pest or weed control at 6.25 µg/mL", "setting": "wheat powdery mildew; read-out: control effect against wheat powdery mildew (%), 6.25 mg/L", "result": 0, "unit": "%"}, {"measurement": "pest or weed control at 25 µg/mL", "setting": "wheat powdery mildew; read-out: control effect against wheat powdery mildew (%), 25 mg/L", "result": 40, "unit": "%"}, {"measurement": "pest or weed control at 100 µg/mL", "setting": "wheat powdery mildew; read-out: control effect against wheat powdery mildew (%), 100 mg/L", "result": 60, "unit": "%"}, {"measurement": "pest or weed control at 400 µg/mL", "setting": "wheat powdery mildew; read-out: control effect against wheat powdery mildew (%), 400 mg/L", "result": 100, "unit": "%"}, {"measurement": "pest or weed control at 2.5 µg/mL", "setting": "[1]", "result": 0, "unit": "%"}, {"measurement": "pest or weed control at 5 µg/mL", "setting": "[1]", "result": 25, "unit": "%"}, {"measurement": "pest or weed control at 10 µg/mL", "setting": "[1]", "result": 85, "unit": "%"}, {"measurement": "pest or weed control at 100 µg/mL", "setting": "[1]", "result": 98, "unit": "%"}, {"measurement": "pest or weed control at 600 µg/mL", "setting": "[1]", "result": 100, "unit": "%"}, {"measurement": "pest or weed control at 10 µg/mL", "setting": "Diamond back moth", "result": 5, "unit": "%"}, {"measurement": "pest or weed control at 100 µg/mL", "setting": "Diamond back moth", "result": 55, "unit": "%"}, {"measurement": "pest or weed control at 600 µg/mL", "setting": "Diamond back moth", "result": 86, "unit": "%"}]}, {"compound": "CCc1ncnc(NC(C)c2ccc(Oc3ccc(C(F)(F)F)cn3)cc2)c1Cl", "note": "(stereo not drawn) [CK40, reference compound]", "values": [{"measurement": "pest or weed control at 10 µg/mL", "setting": "armyworm; 10 mg/L", "result": 0, "unit": "%"}, {"measurement": "pest or weed control at 100 µg/mL", "setting": "armyworm; 100 mg/L", "result": 6, "unit": "%"}, {"measurement": "pest or weed control at 600 µg/mL", "setting": "armyworm", "result": 43, "unit": "%"}, {"measurement": "inhibition at 25 ppm", "setting": "rice blast", "result": "< 50", "unit": "%"}, {"measurement": "pest or weed control at 0.4 µg/mL", "setting": "corn rust; read-out: control effect against corn rust (%), 0.4 mg/L", "result": 0, "unit": "%"}, {"measurement": "pest or weed control at 1.6 µg/mL", "setting": "corn rust; read-out: control effect against corn rust (%), 1.6 mg/L", "result": 30, "unit": "%"}, {"measurement": "pest or weed control at 6.25 µg/mL", "setting": "corn rust; read-out: control effect against corn rust (%), 6.25 mg/L", "result": 70, "unit": "%"}, {"measurement": "pest or weed control at 25 µg/mL", "setting": "corn rust; read-out: control effect against corn rust (%), 25 mg/L", "result": 90, "unit": "%"}, {"measurement": "pest or weed control at 100 µg/mL", "setting": "corn rust; read-out: control effect against corn rust (%), 100 mg/L", "result": 100, "unit": "%"}, {"measurement": "pest or weed control at 400 µg/mL", "setting": "corn rust; read-out: control effect against corn rust (%), 400 mg/L", "result": 100, "unit": "%"}, {"measurement": "pest or weed control at 2.5 µg/mL", "setting": "[1]", "result": 0, "unit": "%"}, {"measurement": "pest or weed control at 5 µg/mL", "setting": "[1]", "result": 27, "unit": "%"}, {"measurement": "pest or weed control at 10 µg/mL", "setting": "[1]", "result": 72, "unit": "%"}, {"measurement": "pest or weed control at 100 µg/mL", "setting": "[1]", "result": 100, "unit": "%"}, {"measurement": "pest or weed control at 600 µg/mL", "setting": "[1]", "result": 100, "unit": "%"}, {"measurement": "pest or weed control at 10 µg/mL", "setting": "Diamond back moth", "result": 13, "unit": "%"}, {"measurement": "pest or weed control at 100 µg/mL", "setting": "Diamond back moth", "result": 29, "unit": "%"}, {"measurement": "pest or weed control at 600 µg/mL", "setting": "Diamond back moth", "result": 100, "unit": "%"}]}]}
